From EP0969013B1, “Peptides for inhibiting HPV E7 proteins” (Deutsches Krebsforschungszentrum Stiftung des öffentlichen …, priority 1998, dated 2003) come the findings set out here.

Structures are written as SMILES. Peptide text beside a SMILES is read from it.

Type in all cases: cell-based
Assay [1] relates to E7/2 cells. Description: Growth rate of E7/2 cells (cell number). The settings on record: 10 µM - 200 µM penetratin-fused synthesized peptide, 1 hour to 72 hours. On the procedure:
(§1) • (A) Peptide No. 732 is chemically synthesized with a leader attached to the NH2 end and supporting the incorporation into cells. It is penetratin and originates from Drosophila antennapedia. Thus, peptide No. 732 is available as fusion polypeptide and has the following sequence: [formula] Cells are used in which HPV16 E7 is expressed and whose growth depends thereon. Such cells are e.g. E7/2 cells. They are transfected with 10 µM - 200 µM of the synthesized peptide No. 732. Growth rate, apoptosis and cell cycle profiles of the cells are determined 1 hour to 72 hours after the transfection. The former is effected by determining the cell number. As regards the second test, reference is made to Example 2 (A). As to the latter test, the cell DNA is stained with propidium iodide and its content is determined in a FACscan. On the basis thereof, the cell cycle profile is assessed by means of the CellQuest program (Schulze, A. et al., Proc. Natl. Acad. Sci, U.S.A. 92, (1995), 11264-11268), the number of cells in the S phase being taken as a marker for the cell proliferation. […] For this purpose, the BamHI/NdeI fragment (cf. Example 1) of pJM-1 is inserted in the vector pET 19b (Novagen company) so as to obtain the vector pH6-732. Thereafter, cleavage is carried out by means of Ndel and a TAT-cDNA of HIV-1 (Vives, E. et al., J. Biol. Chem. 272, (1997), 16010-16017) is inserted. […]

Assay [2] deals with E7/2 cells. The assay can be described thus: Apoptosis of E7/2 cells (propidium iodide, FACscan). As to conditions: 10 µM - 200 µM penetratin-fused synthesized peptide, 1 hour to 72 hours. The method, then: 24 hours after the transfection, the cells are fixed and stained using propidium iodide. The cells are analyzed in a FACscan by measuring the fluorescence caused by propidium iodide. Apoptotic nuclei are shown as nuclei having a DNA content of less than 2N. The amount of apoptotic nuclei is determined in comparison with normal nuclei.
• (A) Peptide No. 732 is chemically synthesized with a leader attached to the NH2 end and supporting the incorporation into cells. It is penetratin and originates from Drosophila antennapedia. Thus, peptide No. 732 is available as fusion polypeptide and has the following sequence: [formula] Cells are used in which HPV16 E7 is expressed and whose growth depends thereon. Such cells are e.g. E7/2 cells. They are transfected with 10 µM - 200 µM of the synthesized peptide No. 732. Growth rate, apoptosis and cell cycle profiles of the cells are determined 1 hour to 72 hours after the transfection. The former is effected by determining the cell number. […] As to the latter test, the cell DNA is stained with propidium iodide and its content is determined in a FACscan. On the basis thereof, the cell cycle profile is assessed by means of the CellQuest program (Schulze, A. et al., Proc. Natl. Acad. Sci, U.S.A. 92, (1995), 11264-11268), the number of cells in the S phase being taken as a marker for the cell proliferation. […]

Assay [3] has as its system E7/2 cells. Description: Cell cycle profile of E7/2 cells (propidium iodide, FACscan, CellQuest). The settings on record: 10 µM - 200 µM penetratin-fused synthesized peptide, 1 hour to 72 hours, marker for cell proliferation. On the procedure: as §1

Take `CC[C@H](C)[C@H](NC(=O)[C@H](CCCCN)NC(=O)[C@H](CCCCN)NC(=O)[C@H](Cc1c[nH]c2ccccc12)NC(=O)[C@H](CCCCN)NC(=O)[C@H](CCSC)NC(=O)[C@H](CCCNC(=N)N)NC(=O)[C@H](CCCNC(=N)N)NC(=O)[C@H](CC(N)=O)NC(=O)[C@H](CCC(N)=O)NC(=O)[C@H](Cc1ccccc1)NC(=O)[C@H](Cc1c[nH]c2ccccc12)NC(=O)[C@@H](NC(=O)[C@H](CCCCN)NC(=O)[C@@H](NC(=O)[C@H](CCC(N)=O)NC(=O)[C@@H](N)CCCNC(=N)N)[C@@H](C)CC)[C@@H](C)CC)C(=O)N[C@@H](C)C(=O)N[C@@H](C)C(=O)N[C@@H](CCCNC(=N)N)C(=O)N[C@@H](CC(C)C)C(=O)N[C@@H](CCCNC(=N)N)C(=O)N[C@@H](CC(C)C)C(=O)N[C@@H](CCCNC(=N)N)C(=O)N[C@@H](CS)C(=O)NCC(=O)N[C@H](C(=O)N[C@H](C(=O)N[C@@H](CC(C)C)C(=O)N[C@@H](CC(C)C)C(=O)N[C@@H](CC(C)C)C(=O)N[C@@H](CS)C(=O)N[C@H](C(=O)N[C@@H](CC(C)C)C(=O)N[C@@H](CC(=O)O)C(=O)N[C@@H](CC(C)C)C(=O)O)[C@@H](C)O)[C@@H](C)CC)C(C)C` [peptide No. 732] (H-RQIKIWFQNRRMKWKKIAARLRLRCGVILLLCTLDL-OH): the growth rate entry in the assay on E7/2 cells [1] is “reduces the growth rate”. The apoptosis frequency result in the assay on E7/2 cells [2] was “lowers the apoptosis frequency”. Moreover, the “number of cells in the S phase” value in the assay on E7/2 cells [3] is “reduces the number of cells in the S phase”.
